Measurements: publication PMC10714399, “Open Source Antibiotics: Simple Diarylimidazoles Are Potent against Methicillin-Resistant Staphylococcus aureus” (ACS Infectious Diseases, 2023)
Values after ≈ are worked out from the molar mass of the structure shown.

What was measured:
[1] = test system: Enterococcus faecalis ATCC 51299 (vanA-positive; vancomycin-resistant); assay: In vitro antibacterial activity, MIC (UCL), VRE; assay type: cell-based; details: read-out: VRE MIC (UCL)
Procedure, shortened: (§1)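 Strains: MRSA NCTC 13373, MSSA ATCC 25923, vanA E. faecalis ATCC 51299. Overnight agar growth suspended in PBS, A600 0.1, diluted 1:100 into isosensitest broth; 2-fold compound dilutions 32–0.03 μg/mL, ≤2% DMSO. Vancomycin QC.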

[2] = test system: PMM (primary mouse macrophages); assay: Toxicity against PMM; assay type: cell-based; details: PMM
Experimental: (§2) ADME and toxicity for compounds were measured according to procedures outlined in the manuscript submitted in parallel to this one;2 other procedures were used for those compounds analysed by Monash University (in vitro ADME) or UCL (toxicity), both described in the main

[3] = test system: Staphylococcus aureus NCTC 13373 (mecA-positive; methicillin-resistant); assay: In vitro antibacterial activity, MIC (UCL School of Pharmacy assay), MRSA; assay type: cell-based; details: Staphylococcus aureus, UCL; read-out: MRSA MIC (UCL)
Procedure, shortened: as §1

[4] = LogD7.4 (Chrom Log D); assay type: physicochemical; details: chromatographic system (Chrom Log D); pH 7.4, NEU; read-out: LogD 7.4 (NEU)
Description: (§3) To guide our initial SAR exploration work, we obtained liver microsomal intrinsic clearance data for 5 of the 18 compounds assayed by CO-ADD (Supporting Information - CDCO Report and Supporting Information - Biology). We then acquired intrinsic clearance (CLint), plasma protein binding (PPB), and solubility data on further compounds throughout the SAR campaign (Supporting Information - Biology, Tables S3 and S4). […] The more polar compounds (lower LogD) had reduced PPB and were more metabolically stable.
(§4) Table S4. ADME and Pharmacokinetics: compounds only appearing in the Supplementary […]
(§5) MRSA Aqueous HLM CLint Rat Hep CLint
(§6) Cmpd MIC Solubility Human PPB (%) (µL/min/mg (µL/min/10x6 LogD7.4
(§7) (µg/mL) (µM) protein) cells)
as §2

[5] = Aqueous solubility; assay type: physicochemical; details: NEU; for solubility: thermodynamic from solid, read-out: Aqueous Solubility (NEU)
Description: as §3, §4, §5, §6, §7, §2

[6] = Human plasma protein binding (PPB); assay type: in vitro ADME; details: human, plasma, human plasma, NEU; read-out: Human PPB (NEU) (converted)
Description: (§8) To guide our initial SAR exploration work, we obtained liver microsomal intrinsic clearance data for 5 of the 18 compounds assayed by CO-ADD (Supporting Information - CDCO Report and Supporting Information - Biology). We then acquired intrinsic clearance (CLint), plasma protein binding (PPB), and solubility data on further compounds throughout the SAR campaign (Supporting Information - Biology, Tables S3 and S4).
as §4, §5, §6, §7, §2

[7] = Rat hepatocyte intrinsic clearance; assay type: in vitro ADME; details: rat hepatocytes, NEU; for hepatocyte CLint: read-out: Rat Hep CLint (NEU)
Description: as §8, §4, §5, §6, §7, §2

[8] = test system: MRC-5SV2 (human lung fibroblast cell line); assay: Toxicity against MRC-5SV2; assay type: cell-based; details: MRC5 cells
Experimental: as §2

[9] = Human liver microsome intrinsic clearance; assay type: in vitro ADME; details: human liver microsomes, NEU; for microsomal CLint: read-out: HLM CLint (NEU)
Description: as §8, §4, §5, §6, §7, §2

[10] = test system: S. aureus ATCC 25923 (methicillin-susceptible); assay: In vitro antibacterial activity, MIC (UCL), MSSA; assay type: cell-based, Staphylococcus aureus; details: Staphylococcus aureus; read-out: MSSA MIC (UCL)
Procedure, shortened: as §1

[11] = test system: VSE; assay: In vitro antibacterial activity, MIC, VSE; assay type: cell-based; details: read-out: VSE MIC (UCL)

Row | MIC [1] | MIC [3] | chromatographic logD [4] | solubility [5] | fraction unbound [6] | Rat Hep CLint (NEU) [7] | microsomal CLint [9] | hepatocyte CLint [7] | Aqueous Solubility (NEU) [5] | HLM CLint (NEU) [9] | MIC [10] | MIC [11] | SMILES | PMM TC50 [2] | MRC5 TC50 [8]
1 | > 32 µg/mL | > 32 µg/mL | 2.2 | 723 µM (≈ 163 µg/mL) | 0.21 | 52.9 uL/min/10x6 cells | > 300 µL/min/mg |  |  |  |  |  | COc1ccn2cc(-c3ccccn3)nc2c1 [OSA_000856] | 64 µM | 51.6 µM
2 | > 32 µg/mL | > 32 µg/mL | 2.5 | 37 µM (≈ 12.5 µg/mL) | 0.035 |  | 124 µL/min/mg | 12.9 µL/min/1e6 cells |  |  |  |  | COc1ccn2c(-c3cccc(Cl)n3)c(-c3ccccn3)nc2c1 [OSA_000857] | 64 µM | 24.2 µM
3 | 8 µg/mL (≈ 25 µM) | 4 µg/mL (≈ 12.5 µM) | 3.1 |  | 0.0055 | 104 uL/min/10x6 cells |  |  | 5 µM | 65.6 uL/min/mg protein |  |  | Cc1ccc(-c2c(-c3ccccn3)nc3cc(Cl)ccn23)cc1 [OSA_000978] |  | 
4 | 8 µg/mL (≈ 25.8 µM) | 8 µg/mL (≈ 25.8 µM) | 0.9 | 54 µM (≈ 16.8 µg/mL) | 0.014 |  |  | > 300 µL/min/1e6 cells |  |  | 4 µg/mL (≈ 12.9 µM) |  | Fc1ccc(Nc2c(-c3ccccn3)nc3sccn23)cc1 [OSA_000984] | 32 µM | 6.4 µM
5 | 16 µg/mL (≈ 53.3 µM) | 4 µg/mL (≈ 13.3 µM) |  |  | 0.007 |  | 86.9 µL/min/mg | > 300 µL/min/1e6 cells |  |  | 4 µg/mL (≈ 13.3 µM) | 16 µg/mL (≈ 53.3 µM) | Cc1ccc(Nc2c(-c3ccccn3)nc3ccccn23)cc1 [OSA_000988] |  | 
6 | 32 µg/mL (≈ 87.3 µM) | 8 µg/mL (≈ 21.8 µM) | 4 | 8 µM (≈ 2.93 µg/mL) | 0.0085 |  | 100 µL/min/mg | > 300 µL/min/1e6 cells |  |  | 8 µg/mL (≈ 21.8 µM) | 16 µg/mL (≈ 43.7 µM) | COc1ccc2nc(-c3ccccn3)c(N(C)c3cc(F)cc(F)c3)n2c1 [OSA_000998] |  | 
7 | 16 µg/mL (≈ 42.3 µM) | 8 µg/mL (≈ 21.1 µM) |  | 27 µM (≈ 10.2 µg/mL) | 0.0063 |  |  | > 300 µL/min/1e6 cells |  | 261 uL/min/mg protein | 8 µg/mL (≈ 21.1 µM) | 16 µg/mL (≈ 42.3 µM) | COc1ccc(-c2nc3ccc(OC)cn3c2N(C)c2ccc(F)cc2)nc1 [OSA_000999] |  | 
8 |  | 16 µg/mL (≈ 45.9 µM) | 3.5 | 26 µM (≈ 9.06 µg/mL) | 0.026 |  | 65.9 µL/min/mg | > 300 µL/min/1e6 cells |  |  | 16 µg/mL (≈ 45.9 µM) |  | COc1cccn2c(N(C)c3ccc(F)cc3)c(-c3ccccn3)nc12 [OSA_001001] |  | 
9 |  | 16 µg/mL (≈ 40.3 µM) | 4.2 | 4 µM (≈ 1.59 µg/mL) | 0.0018 |  | 61.6 µL/min/mg | > 300 µL/min/1e6 cells |  |  | 16 µg/mL (≈ 40.3 µM) |  | CN(c1ccc(F)cc1)c1c(-c2ccccn2)nc2ccc(Br)cn12 [OSA_001003] |  | 
10 |  | 8 µg/mL (≈ 22 µM) | 4.5 | 7 µM (≈ 2.55 µg/mL) | 0.0054 |  | > 300 µL/min/mg | > 300 µL/min/1e6 cells |  |  | 8 µg/mL (≈ 22 µM) |  | CSc1ccc2nc(-c3ccccn3)c(N(C)c3ccc(F)cc3)n2c1 [OSA_001004] |  | 
11 |  | 32 µg/mL (≈ 95.1 µM) | 1.8 | 64 µM (≈ 21.5 µg/mL) | 0.035 |  | 79.3 µL/min/mg | > 300 µL/min/1e6 cells |  |  | 32 µg/mL (≈ 95.1 µM) |  | CN(c1ccc(F)cc1)c1c(-c2ccccn2)nc2cccc(F)n12 [OSA_001005] |  | 
12 |  | > 32 µg/mL | 3.3 | 26 µM (≈ 8.74 µg/mL) | 0.034 |  | 127 µL/min/mg | 209 µL/min/1e6 cells |  |  | > 32 µg/mL |  | CN(c1ccc(F)cc1)c1c(-c2ccccn2)nc2c(F)cccn12 [OSA_001006] |  | 
